Experimental data reported in PMC6467259 (Journal of the American Chemical Society, 2018).

Target: PagF (Planktothrix agardhii, UniProt F5B6Z0, F222A)
Assay: crystal structure of the complex, […] Å
Conditions: MgCl2; isoprene donor-binding site

For CC(C)=CCC/C(C)=C/COP(=O)(O)OP(=O)(O)O [GPP], which “crystal structure of the complex, 1.85 Å” value is on record?
The value was “crystals of Phe222→Ala PagF in complex with GPP and MgCl2”.
